Values after ≈ are worked out from the molar mass of the structure shown. Active and inactive are the calls of the source. The rule behind the calls is not given here.
Legend:
[1] = tested on: Staphylococcus aureus; assay: Antibacterial activity against Staphylococcus aureus ATCC 29213 assessed as inhibition of bacterial growth incubated for 20 to 24 hrs by broth micro dilution method; format: functional; settings: time 20-24 hrs
[2] = tested on: Staphylococcus aureus; assay: Antibacterial activity against methicillin-resistant Staphylococcus aureus ATCC 43300 assessed as inhibition of bacterial growth incubated for 20 to 24 hrs by broth micro dilution method; format: functional; settings: time 20-24 hrs
[3] = tested on: Staphylococcus aureus; assay: Antibacterial activity against methicillin-resistant Staphylococcus aureus ATCC 33592 assessed as inhibition of bacterial growth incubated for 20 to 24 hrs by broth micro dilution method; format: functional; settings: time 20-24 hrs
[4] = tested on: Staphylococcus aureus; assay: Antibacterial activity against methicillin-resistant Staphylococcus aureus ATCC BAA-1720 assessed as inhibition of bacterial growth incubated for 20 to 24 hrs by broth micro dilution method; format: functional; settings: time 20-24 hrs
[5] = tested on: Staphylococcus aureus; assay: Antibacterial activity against vancomycin-intermediate Staphylococcus aureus Mu50 assessed as inhibition of bacterial growth incubated for 20 to 24 hrs by broth micro dilution method; format: functional; settings: time 20-24 hrs
[6] = tested on: Staphylococcus epidermidis; assay: Antibacterial activity against Staphylococcus epidermidis ATCC 12228 assessed as inhibition of bacterial growth incubated for 20 to 24 hrs by broth micro dilution method; format: functional; settings: time 20-24 hrs
[7] = tested on: Bacillus subtilis; assay: Antibacterial activity against Bacillus subtilis CMCC (B) 63501 assessed as inhibition of bacterial growth incubated for 20 to 24 hrs by broth micro dilution method; format: functional; settings: time 20-24 hrs
[8] = tested on: Enterococcus faecium; assay: Antibacterial activity against Enterococcus faecium ATCC 49624 assessed as inhibition of bacterial growth incubated for 20 to 24 hrs by broth micro dilution method; format: functional; settings: time 20-24 hrs
[9] = tested on: Enterococcus faecalis; assay: Antibacterial activity against Enterococcus faecalis ATCC 29212 assessed as inhibition of bacterial growth incubated for 20 to 24 hrs by broth micro dilution method; format: functional; settings: time 20-24 hrs
[10] = tested on: Enterococcus faecium; assay: Antibacterial activity against vancomycin resistant Enterococcus faecium ATCC 700221 assessed as inhibition of bacterial growth incubated for 20 to 24 hrs by broth micro dilution method; format: functional; settings: time 20-24 hrs
[11] = tested on: Enterococcus faecium; assay: Antibacterial activity against vancomycin-resistant Enterococcus faecium clinical isolate assessed as inhibition of bacterial growth incubated for 20 to 24 hrs by broth micro dilution method; format: functional; settings: time 20-24 hrs
[12] = tested on: Escherichia coli; assay: Antibacterial activity against Escherichia coli ATCC 25922 assessed as inhibition of bacterial growth incubated for 20 to 24 hrs by broth micro dilution method; format: functional; settings: time 20-24 hrs
[13] = tested on: Escherichia coli; assay: Antibacterial activity against Escherichia coli ATCC 8739 assessed as inhibition of bacterial growth incubated for 20 to 24 hrs by broth micro dilution method; format: functional; settings: time 20-24 hrs
[14] = tested on: Escherichia coli; assay: Antibacterial activity against NDM-1 expressing Escherichia coli ATCC BAA2469 assessed as inhibition of bacterial growth incubated for 20 to 24 hrs by broth micro dilution method; format: functional; settings: time 20-24 hrs
[15] = tested on: Acinetobacter baumannii; assay: Antibacterial activity against multi-drug resistant Acinetobacter baumannii ATCC 19606 assessed as inhibition of bacterial growth incubated for 20 to 24 hrs by broth micro dilution method; format: functional; settings: time 20-24 hrs
[16] = tested on: Pseudomonas aeruginosa; assay: Antibacterial activity against […] Pseudomonas aeruginosa ATCC 27853 assessed as inhibition of bacterial growth incubated for 20 to 24 hrs by broth micro dilution method; format: functional; settings: time 20-24 hrs
[17] = tested on: Klebsiella pneumoniae; assay: Antibacterial activity against NDM-1 expressing Klebsiella pneumoniae ATCC BAA 2470 assessed as inhibition of bacterial growth incubated for 20 to 24 hrs by broth micro dilution method; format: functional; settings: time 20-24 hrs
[18] = tested on: Staphylococcus aureus; assay: Induction of drug resistance against Staphylococcus aureus ATCC 29213 assessed as fold increase in MIC after 16 passage; format: functional
[19] = Ratio of MBC for bactericidal activity against Bacillus subtilis CMCC (B) 63501 to MIC for antibacterial activity against Bacillus subtilis CMCC (B) 63501; format: functional
[20] = Ratio of MBC for bactericidal activity against Enterococcus faecium ATCC 700221 to MIC for antibacterial activity against Enterococcus faecium ATCC 700221; format: functional
[21] = biological target: T1, Cell division protein FtsZ (Staphylococcus aureus) (UniProt P0A031); assay: Induction of Staphylococcus aureus FtsZ polymerization expressed in Escherichia coli BL21 (DE3) assessed as increase in absorbance at 2 to 8 ug/ml in presence of GTP by microplate reader method; settings: dose 2-8 µg/ml, DDE = dose-dependent effect
T1 sequence (whole entry): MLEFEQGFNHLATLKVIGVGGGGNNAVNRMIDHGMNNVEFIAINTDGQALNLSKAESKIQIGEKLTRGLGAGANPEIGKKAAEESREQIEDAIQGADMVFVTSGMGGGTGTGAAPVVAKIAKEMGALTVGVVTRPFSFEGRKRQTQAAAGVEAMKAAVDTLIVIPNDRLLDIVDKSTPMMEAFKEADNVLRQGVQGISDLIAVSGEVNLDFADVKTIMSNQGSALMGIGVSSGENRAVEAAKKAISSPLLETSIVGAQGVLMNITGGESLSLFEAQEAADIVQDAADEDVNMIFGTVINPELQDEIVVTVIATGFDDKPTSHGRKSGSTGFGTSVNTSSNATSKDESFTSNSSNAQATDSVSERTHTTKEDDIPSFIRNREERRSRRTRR

[22] = tested on: Bacillus subtilis; assay: Bactericidal activity against Bacillus subtilis CMCC (B) 63501 assessed as inhibition of bacterial growth incubated for 24 hrs by resazurin dye based microtiter plate assay; format: functional
[23] = tested on: Staphylococcus aureus; assay: Bactericidal activity against Staphylococcus aureus ATCC 29213 assessed as inhibition of bacterial growth incubated for 24 hrs by resazurin dye based microtiter plate assay; format: functional
[24] = tested on: Staphylococcus aureus; assay: Bactericidal activity against Staphylococcus aureus ATCC 43300 assessed as inhibition of bacterial growth incubated for 24 hrs by resazurin dye based microtiter plate assay; format: functional
[25] = tested on: Enterococcus faecium; assay: Bactericidal activity against Enterococcus faecium ATCC 700221 assessed as inhibition of bacterial growth incubated for 24 hrs by resazurin dye based microtiter plate assay; format: functional
[26] = Ratio of MBC for bactericidal activity against Staphylococcus aureus ATCC 29213 to MIC for antibacterial activity against Staphylococcus aureus ATCC 29213; format: functional
[27] = Ratio of MBC for bactericidal activity against Staphylococcus aureus ATCC 43300 to MIC for antibacterial activity against Staphylococcus aureus ATCC 43300; format: functional
[28] = tested on: Staphylococcus aureus; assay: Antibacterial activity against methicillin-resistant Staphylococcus aureus ATCC BAA41 assessed as fractional inhibitory concentration index incubated for 24 hrs by checker board assay; format: functional
[29] = tested on: Staphylococcus aureus; assay: Antibacterial activity against methicillin-resistant Staphylococcus aureus ATCC BAA41 assessed as inhibition of bacterial growth incubated for 24 hrs by checker board assay; format: functional
[30] = tested on: Staphylococcus aureus; assay: Synergistic antibacterial activity against methicillin-resistant Staphylococcus aureus ATCC BAA41 assessed as inhibition of bacterial growth incubated for 24 hrs in presence of methicillin by checker board assay; format: functional
[31] = tested on: Bacillus subtilis; assay: Induction of morphological changes in Bacillus subtilis CMCC (B) 63501 assessed as elongation of bacterial cell at 0.5 times MIC for 4 hrs (reference value: 3 to 5 um) by microscopic analysis; format: functional
[32] = tested on: Staphylococcus aureus; assay: Induction of morphological changes in Staphylococcus aureus ATCC 29213 assessed as enlargement of cell size at 0.5 times MIC for 4 hrs by microscopic analysis; format: functional, organism-based
[33] = biological target: T1, Cell division protein FtsZ (Staphylococcus aureus); assay: Induction of Staphylococcus aureus FtsZ polymerization expressed in Escherichia coli BL21 (DE3) assessed as increase in absorbance at 2 to 8 ug/ml by microplate reader method; settings: dose 2-8 µg/ml
[34] = biological target: T1, Cell division protein FtsZ (Staphylococcus aureus); assay: Binding affinity to Staphylococcus aureus FtsZ assessed as equilibrium binding constant by isothermal titration calorimetry
[35] = biological target: T1, Cell division protein FtsZ (Staphylococcus aureus); assay: Binding affinity to Staphylococcus aureus FtsZ assessed as increase in alpha helix structure at 8 ug/ml incubated for 30 mins by circular dichroism method; settings: dose 8.0 µg/ml
[36] = biological target: T1, Cell division protein FtsZ (Staphylococcus aureus); assay: Binding affinity to Staphylococcus aureus FtsZ assessed as decrease in beta turn structure at 8 ug/ml incubated for 30 mins by circular dichroism method; settings: dose 8.0 µg/ml
[37] = biological target: T1, Cell division protein FtsZ (Staphylococcus aureus); assay: Binding affinity to Staphylococcus aureus FtsZ assessed as decrease in random coil structure at 8 ug/ml incubated for 30 mins by circular dichroism method; settings: dose 8.0 µg/ml
[38] = biological target: T1, Cell division protein FtsZ (Staphylococcus aureus); assay: Binding affinity to Staphylococcus aureus FtsZ assessed as decrease in other structure at 8 ug/ml incubated for 30 mins by circular dichroism method; settings: dose 8.0 µg/ml
[39] = biological target: T2, Cell division protein FtsZ (Staphylococcus aureus, UniProt P0A031); assay: Binding affinity to Staphylococcus aureus FtsZ assessed as dissociation constant by isothermal titration calorimetry
T2 sequence (P0A031 whole entry): T1 sequence (whole entry)

[40] = tested on: Erythrocyte; assay: Hemolytic activity in Kunming mouse erythrocyte at 1 to 64 ug/ml incubated for 1 hr; format: toxicity, cell-based; settings: dose 1-64 µg/ml
[41] = Cytotoxicity against mouse L929 cells incubated for 48 hrs by MTT assay; format: toxicity, cell-based
[42] = Cytotoxicity against human HK-2 cells incubated for 48 hrs by MTT assay; format: toxicity, cell-based
[43] = tested on: Staphylococcus aureus; assay: Antibacterial activity against Staphylococcus aureus ATCC 29213 infected in L929 cells assessed as inhibition of bacterial growth incubated for 20 to 24 hrs by broth micro dilution method; format: functional; settings: time 20-24 hrs
[44] = tested on: Staphylococcus aureus; assay: Antibacterial activity against Staphylococcus aureus ATCC 29213 infected in HK-2 cells assessed as inhibition of bacterial growth incubated for 20 to 24 hrs by broth micro dilution method; format: functional; settings: time 20-24 hrs
[45] = tested on: Bacillus subtilis; assay: Induction of drug resistance against Bacillus subtilis CMCC (B) 63501 measured after 16 passages; format: functional; settings: dose <= 64.0 µg/ml, time 30.0 min

With `CO[C@H]1/C=C/O[C@@]2(C)Oc3c(C)c(O)c4c(O)c(c(/C=N/N5CCN(C)CC5)c(O)c4c3C2=O)NC(=O)/C(C)=C\C=C\[C@H](C)[C@H](O)[C@@H](C)[C@@H](O)[C@@H](C)[C@H](OC(C)=O)[C@@H]1C` [RIFAMPIN] the MIC [1] was 0.5 µg/mL (≈ 0.608 µM), the MIC [2] was less than 0.125 µg/mL and the MIC [3] was greater than 64 µg/mL. It also gave an MIC [4] of less than 0.125 µg/mL, an MIC [5] of 0.125 µg/mL (≈ 0.152 µM) and an MIC [6] of 1 µg/mL (≈ 1.22 µM). The MIC [7] was 0.125 µg/mL (≈ 0.152 µM), the MIC [8] was less than 0.125 µg/mL and the MIC [9] was 0.125 µg/mL (≈ 0.152 µM). It also gave an MIC [10] of less than 0.125 µg/mL, an MIC [11] of 8 µg/mL (≈ 9.72 µM) and an MIC [12] of 2 µg/mL (≈ 2.43 µM). It also gave an MIC [13] of 8 µg/mL (≈ 9.72 µM), an MIC [14] greater than 64 µg/mL and an MIC [15] greater than 64 µg/mL. It also gave an MIC [16] greater than 64 µg/mL, an MIC [17] greater than 64 µg/mL and a fold change (FC) [18] of 4096.

With `CC1CCN(c2cc(/C=C/c3ccc(N(C)C)cc3)c3ccccc3[n+]2C)CC1.[I-]` the Ratio [19] was 2, the Ratio [20] was 4 and the Activity [21] was “Dde”. It also gave an MIC [1] of 2 µg/mL, an MIC [2] of 4 µg/mL and an MIC [3] of 4 µg/mL. For the same compound, the MIC [4] was 4 µg/mL, the MIC [5] was 4 µg/mL and the MIC [6] was 1 µg/mL. For the same compound, the MIC [7] was 8 µg/mL, the MIC [8] was 16 µg/mL and the MIC [9] was 16 µg/mL. It also gave an MIC [10] of 2 µg/mL, an MIC [11] of 16 µg/mL and an MIC [12] of 32 µg/mL. The MIC [13] was 64 µg/mL, the MIC [14] was 64 µg/mL and the MIC [15] was greater than 64 µg/mL. The MIC [16] was greater than 64 µg/mL, the MIC [17] was greater than 64 µg/mL and the MBC [22] was 16 µg/mL. The MBC [23] was 16 µg/mL, the MBC [24] was 32 µg/mL and the MBC [25] was 8 µg/mL. For the same compound, the Ratio [26] was greater than 4, the Ratio [27] was greater than 4 and the “fractional inhibitory concentration index (FICI)” value [28] was 0.3125. The MIC [29] was 16 µg/mL, the MIC [30] was 4 µg/mL and the Activity [31] was 30 um. The Activity [32] was “Active”, the Activity [33] was “Active” and the Kb [34] was 2.08 10^5/M. The Activity [35] was “Active”, the Activity [36] was “Active” and the Activity [37] was “Active”. For the same compound, the Activity [38] was “Active”, the Kd [39] was 3.86 µM and the IC5 [40] was 32 µg/mL. It also gave an IC50 at 48 h [41] of 11.3 µg/mL, an IC50 at 48 h [42] of 8.89 µg/mL and an MIC [43] of 2 µg/mL. For the same compound, the MIC [44] was 2 µg/mL, the fold change (FC) [18] was 8 and the Activity [45] was “Active”.

From ChEMBL document CHEMBL5154863, “Design and synthesis of quinolinium-based derivatives targeting FtsZ for antibacterial evaluation and mechanistic study” (Eur J Med Chem, 2022)
